Numbers after ± are expanded uncertainties.
Columns and labels:
[1] = xn = mol fraction of the nth substance listed; settings: 101 kPa, Liquid; for speed of sound: Sing-around technique in a fixed-path interferometer; for mass density: Vibrating tube method
[2] = excess molar enthalpy (molar enthalpy of mixing); xn = mol fraction of the nth substance listed; settings: 298.15 K, 101 kPa, Liquid, 2-Drop Calorimetry

CCn1cc[n+](C)c1.F[B-](F)(F)F [1-ethyl-3-methylimidazolium tetrafluoroborate] + CC(C)=O
[1]
Settings | mass density, 303.15 K [kg/m3] | mass density, 308.15 K [kg/m3] | speed of sound, 303.15 K [m/s] | speed of sound, 308.15 K [m/s]
x1 = 0.1214 | 923.44 ± 0.23 | 918.15 ± 0.23 | – | 1172.8 ± 1.2
x1 = 0.1789 | 978.74 ± 0.23 | 973.95 ± 0.23 | – | 1211.1 ± 1.3
x1 = 0.2147 | 1009.37 ± 0.21 | 1004.85 ± 0.21 | – | 1238.4 ± 1.3
x1 = 0.2813 | 1059.25 ± 0.23 | 1055.19 ± 0.23 | – | 1295.2 ± 1.4
x1 = 0.3219 | 1085.84 ± 0.25 | 1082.01 ± 0.25 | – | 1331 ± 1.4
x1 = 0.3649 | 1110.78 ± 0.28 | 1107.15 ± 0.27 | – | 1367.9 ± 1.5
x1 = 0.4193 | 1138.75 ± 0.33 | 1135.16 ± 0.33 | – | 1417.4 ± 1.5
x1 = 0.4714 | 1161.69 ± 0.4 | 1158.46 ± 0.39 | – | 1458.4 ± 1.6
x1 = 0.5217 | 1181.07 ± 0.47 | 1177.84 ± 0.46 | – | 1498 ± 1.7
x1 = 0.5772 | 1199.7 ± 0.55 | 1196.16 ± 0.55 | 1559.2 ± 1.7 | 1531 ± 1.7
x1 = 0.6319 | 1215.28 ± 0.64 | 1211.72 ± 0.64 | 1579.8 ± 1.8 | 1558.2 ± 1.8
x1 = 0.6768 | 1226.6 ± 0.72 | 1222.91 ± 0.72 | 1587.6 ± 1.9 | 1574.7 ± 1.9
x1 = 0.7199 | 1236.06 ± 0.81 | 1232.31 ± 0.8 | 1594 ± 1.9 | 1587.8 ± 1.9
x1 = 0.7724 | 1246.25 ± 0.91 | 1242.25 ± 0.91 | 1592.9 ± 2 | 1595.8 ± 2
x1 = 0.8304 | 1255.95 ± 1 | 1251.74 ± 1 | 1591.6 ± 2.1 | 1597.6 ± 2.1
x1 = 0.8766 | 1262.51 ± 1.1 | 1258.3 ± 1.1 | 1589.9 ± 2.2 | 1597.6 ± 2.2
x1 = 0.9011 | 1265.71 ± 1.2 | 1261.43 ± 1.2 | 1589.4 ± 2.2 | 1597.9 ± 2.2
x1 = 0.9203 | 1267.99 ± 1.2 | 1263.7 ± 1.2 | 1591 ± 2.2 | 1597.3 ± 2.2

[2]
Settings | excess molar enthalpy [kcal/mol]
x1 = 0.0987 | -0.0136 ± 0.000478
x1 = 0.1451 | -0.0198 ± 0.000478
x1 = 0.1991 | -0.0272 ± 0.000717
x1 = 0.2547 | -0.0339 ± 0.000717
x1 = 0.3012 | -0.038 ± 0.000956
x1 = 0.3428 | -0.0423 ± 0.000956
x1 = 0.3984 | -0.0461 ± 0.000956
x1 = 0.4425 | -0.0483 ± 0.0012
x1 = 0.4851 | -0.0497 ± 0.0012
x1 = 0.5335 | -0.0502 ± 0.0012
x1 = 0.6021 | -0.048 ± 0.0012
x1 = 0.6689 | -0.0454 ± 0.000956
x1 = 0.7148 | -0.0418 ± 0.000956
x1 = 0.7723 | -0.0359 ± 0.000956
x1 = 0.8227 | -0.0289 ± 0.000717
x1 = 0.8769 | -0.0213 ± 0.000478
x1 = 0.9012 | -0.0174 ± 0.000478
x1 = 0.9113 | -0.016 ± 0.000478

Source: the NIST ThermoML archive (doi:10.1016/j.jct.2013.01.010)
